Reference: patent US20060069132A1, “Azolecarboxamide herbicides” (priority 2004, published 2006)

Columns and labels:
blackgrass = experiment: Test B postemergence herbicide test; type: in vivo, Alopecurus myosuroides
Outline: (§1)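 Paddy species grown to the 2-leaf stage under flooding; blackgrass sprayed postemergence at 2–18 cm (1- to 4-leaf stage). Plants kept in a greenhouse for 13 to 15 days, then visually rated against controls on 0 (no effect) to 100 (complete control).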

rice = experiment: Test B flooded paddy test; type: in vivo, Oryza sativa; details: 1000 g ai/ha, scale 0 to 100 (0 no effect, 100 complete control)
Outline: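 Each value is a visual 0–100 response rating taken against controls 13 to 15 days after treatment in the greenhouse. Plants received formulated chemical postemergence at the 1- to 4-leaf stage or, in flooded paddy, at the 2-leaf stage.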

large crabgrass = experiment: Test B pre-/postemergence herbicide test; type: in vivo, Digitaria sanguinalis
Outline: (§2)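 Evaluation is visual, comparing treated with control plants on a scale where 0 means no effect and 100 means full control. Treatments were preemergence, or postemergence on seedlings 2–18 cm tall, and held 13–15 days in the greenhouse.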

barnyardgrass [1] = experiment: Test B pre-/postemergence herbicide test; type: in vivo, Echinochloa crus-galli
Outline: (§3)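 Test chemicals in a non-phytotoxic solvent mixture with surfactant were applied preemergence to seeded species and postemergence to plants 2-18 cm tall (1- to 4-leaf stage); rice and barnyardgrass were also tested in a flooded paddy at the 2-leaf stage. Visual rating versus controls after 13-15 days in greenhouse, scale 0 (no effect) to 100 (complete control).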

corn = experiment: Test B pre-/postemergence herbicide test; type: in vivo, Zea mays
Outline: as §2

[2] = system: small flower umbrella sedge; experiment: Test B flooded paddy test; type: in vivo, Cyperus difformis; details: 1000 g ai/ha, scale 0 to 100 (0 no effect, 100 complete control)
Outline: as §1

wheat = experiment: Test B postemergence herbicide test; type: in vivo, Triticum aestivum; design: key to Wheat plant response rating: 0 = no effect, 100 = complete control; details: for Wheat plant response rating: postemergence
Outline: (§4)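 Scale 0–100: zero equals no visible effect, 100 complete control, judged by eye relative to controls. Timing: 13 to 15 days in greenhouse post-treatment. Growth stage at spraying: two leaves (paddy) or one to four leaves, 2–18 cm (postemergence).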

cocklebur = experiment: Test B pre-/postemergence herbicide test; type: in vivo, Xanthium strumarium
Outline: as §3

Surinam grass = experiment: Test B pre-/postemergence herbicide test; type: in vivo, Urochloa decumbens
Outline: as §2

ducksalad = experiment: Test B flooded paddy test; type: in vivo, Heteranthera limosa; details: 1000 g ai/ha, scale 0 to 100 (0 no effect, 100 complete control)
Outline: as §1

giant foxtail = experiment: Test B pre-/postemergence herbicide test; type: in vivo, Setaria faberi
Outline: as §2

pigweed = experiment: Test B pre-/postemergence herbicide test; type: in vivo, Amaranthus retroflexus
Outline: as §2

wild oat = experiment: Test B postemergence herbicide test; type: in vivo, Avena fatua
Outline: as §4

lambsquarters = experiment: Test B pre-/postemergence herbicide test; type: in vivo, Chenopodium album
Outline: as §2

barnyardgrass [3] = experiment: Test B flooded paddy test; type: in vivo, Echinochloa crus-galli; details: 1000 g ai/ha, scale 0 to 100 (0 no effect, 100 complete control)
Outline: as §1

morningglory = experiment: Test B pre-/postemergence herbicide test; type: in vivo, Ipomoea coccinea
Outline: as §3

[4] = 125 g ai/ha, visual rating, scale 0 (no effect) to 100 (complete control), postemergence
[5] = postemergence, 500 g ai/ha, scale 0 to 100, 0 is no effect, 100 is complete control
[6] = 125 g ai/ha, 0 = no effect, 100 = complete control, preemergence
[7] = 500 g ai/ha, visual rating, 0 = no effect, 100 = complete control, preemergence
[8] = Postemergence, 125 g ai/ha, scale 0 (no effect) to 100 (complete control)
[9] = Postemergence, 500 g ai/ha, visual rating after 13 to 15 days, scale 0 (no effect) to 100 (complete control)
[10] = Preemergence, 500 g ai/ha, scale 0 to 100
[11] = preemergence, 125 g ai/ha, 0 to 100 scale, 0 is no effect, 100 is complete control

SMILES: CCc1nn(C(C)(C)C)cc1C(=O)Nc1cc(C(=O)N(C)C)ccn1 [Compound 293]
- Blackgrass plant response rating (blackgrass; [4]): 30
- Blackgrass plant response rating (blackgrass; [5]): 30
- Rice plant response rating (rice): 90
- Crabgrass, Large plant response rating (0 to 100 scale) (large crabgrass; [6]): 100
- Crabgrass, Large plant response rating (large crabgrass; [4]): 0
- Plant response rating, Crabgrass, Large (large crabgrass; [7]): 100
- Crabgrass, Large plant response rating (large crabgrass; [5]): 20
- Barnyardgrass plant response rating (0 to 100 scale) (barnyardgrass [1]; [6]): 90
- Barnyardgrass plant response rating (barnyardgrass [1]; [4]): 0
- Plant response rating, Barnyardgrass (barnyardgrass [1]; [7]): 100
- Barnyardgrass plant response rating (barnyardgrass [1]; [5]): 10
- Corn plant response rating (0 to 100 scale) (corn; [6]): 70
- Corn plant response rating (corn; [4]): 10
- Plant response rating, Corn (corn; [7]): 100
- Corn plant response rating (corn; [5]): 30
- Sedge, Umbrella plant response rating [2]: 80
- Wheat plant response rating (wheat; 125 g ai/ha, visual rating, scale 0 (no effect) to 100 (complete control)): 20
- Wheat plant response rating (wheat; 500 g ai/ha, scale 0 to 100, 0 is no effect, 100 is complete control): 30
- Cocklebur plant response rating (0 to 100 scale) (cocklebur; [6]): 60
- Cocklebur plant response rating (cocklebur; [4]): 20
- Plant response rating, Cocklebur (cocklebur; [7]): 90
- Cocklebur plant response rating (cocklebur; [5]): 30
- Surinam Grass plant response rating (0 to 100 scale) (Surinam grass; [6]): 90
- Surinam Grass plant response rating (Surinam grass; [4]): 10
- Plant response rating, Surinam Grass (Surinam grass; [7]): 100
- Surinam Grass plant response rating (Surinam grass; [5]): 20
- Ducksalad plant response rating (ducksalad): 80
- Foxtail, Giant plant response rating (0 to 100 scale) (giant foxtail; [6]): 60
- Foxtail, Giant plant response rating (giant foxtail; [4]): 20
- Plant response rating, Foxtail, Giant (giant foxtail; [7]): 100
- Foxtail, Giant plant response rating (giant foxtail; [5]): 30
- Pigweed plant response rating (0 to 100 scale) (pigweed; [6]): 10
- Pigweed plant response rating (pigweed; [4]): 10
- Plant response rating, Pigweed (pigweed; [7]): 100
- Pigweed plant response rating (pigweed; [5]): 40
- Oat, Wild plant response rating (wild oat; [4]): 30
- Oat, Wild plant response rating (wild oat; [5]): 50
- Lambsquarters plant response rating (0 to 100 scale) (lambsquarters; [6]): 80
- Lambsquarters plant response rating (lambsquarters; [4]): 50
- Plant response rating, Lambsquarters (lambsquarters; [7]): 100
- Lambsquarters plant response rating (lambsquarters; [5]): 70
- Barnyardgrass plant response rating (barnyardgrass [3]): 90
- Morningglory plant response rating (0 to 100 scale) (morningglory; [6]): 40
- Morningglory plant response rating (morningglory; [4]): 30
- Plant response rating, Morningglory (morningglory; [7]): 100
- Morningglory plant response rating (morningglory; [5]): 70

SMILES: C#CCNC(=O)c1cccc(NC(=O)c2cc(C(C)(C)C)nn2CC)c1 [Compound 47]
- Blackgrass plant response rating (blackgrass; [8]): 10
- Plant response rating, Blackgrass (blackgrass; [9]): 10
- Rice plant response rating (rice; visual rating, 13 to 15 days): 70
- Crabgrass, Large plant response rating (large crabgrass; [8]): 10
- Plant response rating, Crabgrass, Large (large crabgrass; [9]): 70
- Crabgrass, Large plant response rating (large crabgrass; [10]): 100
- Barnyardgrass plant response rating (barnyardgrass [1]; [8]): 20
- Plant response rating, Barnyardgrass (barnyardgrass [1]; [9]): 40
- Barnyardgrass plant response rating (barnyardgrass [1]; [10]): 90
- Corn plant response rating (corn; [8]): 10
- Plant response rating, Corn (corn; [9]): 30
- Corn plant response rating (corn; [10]): 10
- Sedge, Umbrella plant response rating ([2]; visual rating, 13 to 15 days): 80
- Plant response rating, Wheat (wheat; [9]): 30
- Cocklebur plant response rating (cocklebur; [8]): 10
- Plant response rating, Cocklebur (cocklebur; [9]): 100
- Cocklebur plant response rating (cocklebur; [10]): 40
- Plant response rating, Surinam Grass (Surinam grass; [9]): 40
- Surinam Grass plant response rating (Surinam grass; [10]): 70
- Plant response rating, Surinam Grass (Surinam grass; [11]): 20
- Ducksalad plant response rating (ducksalad; visual rating, 13 to 15 days): 80
- Foxtail, Giant plant response rating (giant foxtail; [8]): 30
- Plant response rating, Foxtail, Giant (giant foxtail; [9]): 30
- Foxtail, Giant plant response rating (giant foxtail; [10]): 90
- Plant response rating, Foxtail, Giant (giant foxtail; [11]): 40
- Plant response rating, Pigweed (pigweed; [9]): 100
- Pigweed plant response rating (pigweed; [10]): 100
- Plant response rating, Pigweed (pigweed; [11]): 100
- Oat, Wild plant response rating (wild oat; [8]): 10
- Plant response rating, Oat, Wild (wild oat; [9]): 30
- Lambsquarters plant response rating (lambsquarters; [8]): 80
- Plant response rating, Lambsquarters (lambsquarters; [9]): 90
- Lambsquarters plant response rating (lambsquarters; [10]): 100
- Plant response rating, Lambsquarters (lambsquarters; [11]): 100
- Barnyardgrass plant response rating (barnyardgrass [3]; visual rating, 13 to 15 days): 90
- Morningglory plant response rating (morningglory; [8]): 30
- Plant response rating, Morningglory (morningglory; [9]): 100
- Morningglory plant response rating (morningglory; [10]): 30
- Plant response rating, Morningglory (morningglory; [11]): 20
